Several values for one entry are separate records, joined by “and”; a condition that tells them apart may be missing. Identical values can stand only once.

Data set [1] deals with macrophages (ED1) and granulocytes (GR) infiltrated into the pancreatic islets. In words: Immunohistopathology staining of pancreas for infiltration of macrophages and granulocytes. As to conditions: for entry of inflammatory cells into pancreatic tissue: animals of Example 1.
Data set [2] deals with iNOS, TNF-α, and IFN-γ mRNA. In words: Quantitative real-time PCR of pancreas, pro-inflammatory cytokines and iNOS. It is filed as in vivo, mouse. The following applies: FIG. 9, vs saline-treated mice. (Real-time PCR tracks product formation cycle by cycle.)
In data set [3] the test system is NOD mice. Put plainly: Atorvastatin calcium and AICAR, individually and in combination, blood glucose in NOD mice. As to conditions: FIG. 8. It is filed as in vivo, mouse.
In data set [4] the test system is NOD mice. In words: Prevention of diabetes in NOD mice, daily oral atorvastatin calcium or AICAR. The following applies: for NOD mice without diabetes compared to saline: FIG. 6, atorvastatin p<0.004, AICAR 10 mg/kg body weight per day orally p<0.001. It is filed as in vivo, mouse. An excerpt: The non-obese diabetic (NOD) mouse model is the best-studied animal model of autoimmune diabetes. […] Spontaneous diabetes occurs in female NOD mice and is preceded by insulitis, a lymphocytic infiltration of the pancreatic islets, which is the major histologic event occurring by 5-8 weeks in the NOD mouse (Chatenoud et al., Proc. Natl. Acad. Sci. 91:123-127, 1994).
In these experiments, 4-week old female NOD mice were obtained from Jackson Laboratories (JAX strain no 001976; NOD/LtJ strain) and maintained in a sterile environment. Drug treatment began at 4-weeks of age, prior to inflammatory disease onset. Under normal conditions, diabetes begins appearing in NOD mice by 12-weeks in untreated animals, with 90-100% of the mice developing the disease by 30-weeks.
The animals were divided into three groups of 23 animals each. Group 1 was the control and received vehicle only by oral lavage of physiological saline daily. Groups 2 and 3 received atorvastatin calcium (Lipitor®) at a dose of 5 or 10 mg/kg body weight daily, respectively. Blood glucose (BG) was measured in each animal three-times per week. […] Also, two non-diabetic animals from each group were sacrificed on days 50, 70, and 80 for histological and cytokine analyses (not included in FIG. 1).
In addition to statins, AICAR was also administered to NOD mice at 10 mg/kg body weight per day orally.

The conditions of data set [5]: Palomer et al., Diabetologia 48:1671-1673 (2005); cited from earlier work.
In data set [6] the test system is juvenile patients newly diagnosed with T1DM. Put plainly: Statin treatment of juvenile patients newly diagnosed with T1DM, C-peptide. It is filed as in vivo, human. As to conditions: patient. As to the method:
Two juvenile patients newly diagnosed with T1DM were treated with a statin in order to evaluate whether the diabetic condition in the juvenile patient can be stabilized or reversed by statin treatment. A human patient who was positive for insulin antibodies was identified as having new onset T1DM. […] The patient was treated with 10 mg/day for the first two weeks after diagnosis, and 20 mg/day thereafter.
A human patient who was positive for insulin antibodies was identified as having new onset T1DM. The patient began treatment with 20 mg/day atorvastatin calcium (Lipitor®) at the time (the day of) diagnosis of T1DM. […] Normally, within 12 months after diagnosis a child would have been expected to drop from 100% of the insulin the patient started with to 14.0%±7% (s.d.) of the insulin the child started with.

The subject of a further data set is iNOS and TNF-α protein. Put plainly: Western blot of pancreas tissue. It counts as in vivo, mouse. As to conditions: vs saline-treated diabetic mice. Background: A western blot detects proteins with antibodies after separation by electrophoresis.
Data set [7] deals with NOD mice. In words: Simvastatin plus insulin, blood glucose in NOD mice. It counts as in vivo, mouse. How it is done:
In another experiment, simvastatin was administered to NOD mice, and the animals were supplemented with insulin in an attempt to keep the animals from developing diabetic ketoacidosis. The study was designed to examine whether simvastatin at 2 mg/kg/day and 5 mg/kg/day protected islet cells from damage during early phases of diabetes. […]. The animals were divided into four groups randomly. Group 1 was the control and received oral lavage of physiological saline daily, plus insulin as set forth above. Groups 2 and 3 received simvastatin at a dose of 2 mg/kg/day or 5 mg/kg/day, respectively, along with insulin as set forth above. Group 4 received no treatment with either simvastatin or insulin. Blood glucose (BG) was measured in each animal approximately once a week, unless the glucose level of an animal began to fluctuate, at which time glucose level were measured every other day. This study lasted approximately four months. The last column of Table 1 is a list of measurements of glucose levels in all animals treated with simvastatin.

The subject of another data set is new-onset T1DM patients. The following applies: cited from earlier work.

Consider `NC(=O)c1ncn([C@@H]2O[C@H](CO)[C@@H](O)[C@H]2O)c1N` [AICAR, 5-aminoimidazole-4-carboxamide ribonucleoside], for which, in data set [1], the “entry of inflammatory cells into pancreatic tissue” value is given as “inflammatory cells are not entering pancreatic tissue”. For the same compound, the “mRNA expression of iNOS, TNF-α, and IFN-γ in pancreas” value in [2] is “elevated in saline-treated mice”. Besides, in the data set with NOD mice [3] (Group 4, 0.5 mg/gm body weight daily oral, p=0.025 by log-rank test), the “mean BG vs control Group 1” value is “lower”. Besides, in the data set with NOD mice [4], the “NOD mice without diabetes compared to saline” value is given as “significantly different”.
As to `CC(C)c1c(C(=O)Nc2ccccc2)c(-c2ccccc2)c(-c2ccc(F)cc2)n1CC[C@@H](O)C[C@@H](O)CC(=O)O` [atorvastatin calcium], in data set [1], the “entry of inflammatory cells into pancreatic tissue” value is given as “inflammatory cells are not entering pancreatic tissue”. In addition, the “immunostaining for ED1 and GR1 marker proteins in pancreas” value in [1] (vs intense staining in saline-treated mice) is “No immunostaining was observed”. Further, the “mRNA expression of iNOS, TNF-α, and IFN-γ in pancreas” value in data set [2] was “elevated in saline-treated mice”. Also, the “effect on preventing diabetes” value in [5] is recorded as “no effect on preventing diabetes”. Moreover, in data set [6] (10 mg/day two weeks then 20 mg/day, six months, FIG. 14), the C-peptide result is given as “marked increase in C-peptide”. For the same compound, the “rise of C-peptide levels” value in data set [6] (20 mg/day, after 50 days of treatment) is reported as 39.25%. Moreover, the C-peptide level in data set [6] (20 mg/day, after 50 days of treatment, initial 35.8 units) is 49.85 units. Further, the “increase of insulin over the original amount of C-peptide” value in data set [6] (20 mg/day, over a period of 24 months, FIG. 15) amounted to 240%. Moreover, the “net increase of the amount of insulin vs expected” value in data set [6] (expected […]±7% of starting insulin within 12 months) is given as 600%. Besides, the “mean BG vs control Group 1” value was “lower” with NOD mice [3] (Group 2, 5 mg/kg body weight daily oral, day 59-109 after weaning) and “lower” in the data set with NOD mice [3] (Group 3, 10 mg/kg body weight daily oral, day 59-109 after weaning). For the same compound, in the data set with NOD mice [4] (10 mg/kg daily oral, s.e.=15, n=277, p<0.001 vs saline 219), the “mean BGs” value is given as 182.5. In addition, the “NOD mice without diabetes compared to saline” value in the data set on NOD mice [4] is “effective”. Further, in the data set on NOD mice [4] (NOD mice, 5 or 10 mg/kg daily), the “protection from development of auto-immune diabetes” value is listed as “partially protects”. Besides, the “number of surviving disease-free animals vs control group” value with NOD mice [4] (after 104 days of treatment, 5 or 10 mg/kg daily, FIG. 1) is reported as “greater”. Moreover, in the data set on NOD mice [4] (during treatment, FIG. 1), the “number of animals that developed diabetes” value is listed as “reduction in the number of animals that developed diabetes”. In addition, the “expression of iNOS and TNF-α protein in pancreas” value in the data set on iNOS and TNF-α protein was “increased expression of iNOS and TNF-α protein in saline-treated diabetic mice compared with atorvastatin calcium-treated mice”.
For the compound `CCC(C)(C)C(=O)O[C@H]1C[C@@H](C)C=C2C=C[C@H](C)[C@H](CC[C@@H]3C[C@@H](O)CC(=O)O3)[C@H]21` [simvastatin], the “average blood glucose level” value in the data set on NOD mice [7] (Group 2, simvastatin 2 mg/kg/day plus insulin, 36 determinations, p=0.05 vs saline plus insulin) is 143.6 ± 26.5 mg/dL; in the data set on NOD mice [7] (Group 2, simvastatin 2 mg/kg/day plus insulin, 36 determinations, p=0.05 vs saline plus insulin, listed as Simv.), 143.6 mg/dL; in the data set with NOD mice [7] (Group 3, simvastatin 5 mg/kg/day plus insulin, 28 determinations, p<0.02 vs saline plus insulin), 134.5 ± 15.7 mg/dL; in the data set on NOD mice [7] (Group 3, simvastatin 5 mg/kg/day plus insulin, 28 determinations, p<0.02 vs saline plus insulin, listed as Simv.), 134.5 mg/dL; in the data set on NOD mice [7] (Simvastatin Combined, 64 determinations), 139.7 mg/dL and 139.6563 mg/dL.
In the case of “TRX4: anti-CD3 monoclonal antibody with orphan drug status”, the “adverse effect associated with therapy” value with new-onset T1DM patients (six-day intravenous infusion) was “moderate “flu-like” syndrome”.
In the case of “hOKT3y1(ala-ala): modified, nonmitogenic, humanized form of the anti-CD3 monoclonal antibody”, the “patients who maintained the same or improved endogenous insulin secretion” value in the data set on new-onset T1DM patients (one year after initial 14-day course, 25% in the control group, Herold et al. 2002) was 75%.

Values taken from patent publication US20080227846A1, “METHODS OF TREATING JUVENILE TYPE 1 DIABETES MELLITUS” (MUSC Foundation for Research Development, priority 2007, published 2008).
